Measurements reported in paper PMC4645160, “Targeting kinases with anilinopyrimidines: discovery of N-phenyl-N’-[4-(pyrimidin-4-ylamino)phenyl]urea derivatives as selective inhibitors of class III receptor tyrosine kinase subfamily” (Scientific Reports, 2015).
Like-named read-outs stand apart in the source and are kept apart here.

Assays:
panel of 48 kinases = experiment: KinomeScan primary screening (POC) at 10 μM; format: binding, human; conditions: POC values
Excerpt: Synthesized compounds were screened against a panel of 48 kinases selected within the ScanEDGE subset of DiscoverX (http://www.discoverx.com/services/drug-discovery-development-services/kinase-profiling/kinomescan/scanedge). The ScanEDGE includes 97 kinases and is an economical approach to assess compounds selectivity throughout the human kinome. All the wt-TKs along with some relevant mutants of Abl1 (T315I) and of EGFR (L858R and L858R/T790M) were chosen. The remaining 18 targets (3 Tyrosine Kinases-Like, TKLs; 15 Serine-Threonine Kinases, STKs) were selected among the remaining kinases in the ScanEDGE subset on the basis of their well established role in cancer (see Fig. S2 for a graphical representation of the selected kinases with reference to the kinome tree. Some references highlighting the role of each kinase in cancer are also reported in Table S3).
The compounds were evaluated using the KinomeScan™ platform (http://www.discoverx.com/services/drug-discovery-development-services/kinase-profiling/kinomescan), that measures the ability of the test compound to disrupt the complex between a high affinity ATP-mimic probe immobilized on a solid support and the kinase of interest. The KinomeScan is a very helpful technology for the fast and reliable screening of a number of compounds against a wide and customizable panel of kinases. Besides, it is not based on the use of hazardous radioactive ^32P-ATP and has a very low rate of false positive (<1%)[44]. The screening platform outputs a “Percent of Control” (POC) value, statistically correlated to the dissociation constant (Kd) value (http://www.discoverx.com/tools-resources/leadhunter-study-reports-data-analysis), for each pair of kinase/ligand. The POC is calculated as reported in equation (1):
Where: test compound signal = amount of kinase still binding the probe after treatment with test compound; negative control signal = amount of kinase still binding the probe after treatment with DMSO (100% control); positive control signal = amount of kinase still binding the probe after treatment with control compound (0% control).
The compounds were tested at high concentration (10 μM), in order to highlight not only the main target but also the off-targets. The results of the preliminary screening are reported as heat map (Fig. 4; see also Table S4 for all the measured values), in which the compounds are grouped on the basis of the 6 or 5 substituent at the pyrimidine ring.

HEK293 cells = experiment: MTT cytotoxicity assay, non-tumor HEK293 cells; format: cell-based, human; conditions: for IC50: Homo sapiens, HEK293, MTT test, 72 h, non-tumor cells, read-out: HEK293 IC50 (μM) ± SD
Description: F. Zunino (Division of Experimental Oncology B, Istituto Nazionale dei Tumori, Milan, Italy).
The growth inhibitory effect towards human cell lines was evaluated by means of MTT (tetrazolium salt reduction) assay. […] Triplicate cultures were established for each treatment.

CSF1R = molecular target: T1, CSF1R (Homo sapiens, UniProt P07333); experiment: KinomeScan Kd determination, CSF1R; format: binding; conditions: for KdRTK/KdKIT, CSF1R: Kd CSF1R over Kd KIT; for Kd: KinomeScan
T1 construct: purchased DiscoverX (KinomeScan service)
Description: (§1) The compounds were evaluated using the KinomeScan™ platform (http://www.discoverx.com/services/drug-discovery-development-services/kinase-profiling/kinomescan), that measures the ability of the test compound to disrupt the complex between a high affinity ATP-mimic probe immobilized on a solid support and the kinase of interest. The KinomeScan is a very helpful technology for the fast and reliable screening of a number of compounds against a wide and customizable panel of kinases. Besides, it is not based on the use of hazardous radioactive ^32P-ATP and has a very low rate of false positive (<1%)[44]. The screening platform outputs a “Percent of Control” (POC) value, statistically correlated to the dissociation constant (Kd) value (http://www.discoverx.com/tools-resources/leadhunter-study-reports-data-analysis), for each pair of kinase/ligand. The POC is calculated as reported in equation (1): […]
(§2) The ability of compounds 19 and 27 to bind the class III RTK members was measured (Table 2; see also Figs S3 and S4 for dose/response curves).
(§3) Figure S3. Dose/response curve for compound 19 against tested kinases for Kd determination. The amount of kinase measured by qPCR (Signal; y-axis) is plotted against the corresponding compound concentration in nM in log10 scale (x-axis). Data points marked with an "x" were not used for Kd determination.
(§4) (1 picture or pasted object on this page, not shown here)
(§5) Figure S4. Dose/response curve for compound 27 against tested kinases for Kd

KIT = molecular target: T2, KIT (Homo sapiens, UniProt P10721); experiment: KinomeScan Kd determination, KIT; format: binding; conditions: for KdRTK/KdKIT, KIT: Kd KIT over Kd KIT; for Kd: KinomeScan
T2 construct: purchased DiscoverX (KinomeScan service)
Description: as §1, §2, §3, §4, §5

[1] = MTD studies (highest not toxic dose); format: in vivo; conditions: C57BL, mouse, in vivo; daily ip; read-out: Highest not toxic dose as determined by MTD studies

T2 sequence (P10721 26-976): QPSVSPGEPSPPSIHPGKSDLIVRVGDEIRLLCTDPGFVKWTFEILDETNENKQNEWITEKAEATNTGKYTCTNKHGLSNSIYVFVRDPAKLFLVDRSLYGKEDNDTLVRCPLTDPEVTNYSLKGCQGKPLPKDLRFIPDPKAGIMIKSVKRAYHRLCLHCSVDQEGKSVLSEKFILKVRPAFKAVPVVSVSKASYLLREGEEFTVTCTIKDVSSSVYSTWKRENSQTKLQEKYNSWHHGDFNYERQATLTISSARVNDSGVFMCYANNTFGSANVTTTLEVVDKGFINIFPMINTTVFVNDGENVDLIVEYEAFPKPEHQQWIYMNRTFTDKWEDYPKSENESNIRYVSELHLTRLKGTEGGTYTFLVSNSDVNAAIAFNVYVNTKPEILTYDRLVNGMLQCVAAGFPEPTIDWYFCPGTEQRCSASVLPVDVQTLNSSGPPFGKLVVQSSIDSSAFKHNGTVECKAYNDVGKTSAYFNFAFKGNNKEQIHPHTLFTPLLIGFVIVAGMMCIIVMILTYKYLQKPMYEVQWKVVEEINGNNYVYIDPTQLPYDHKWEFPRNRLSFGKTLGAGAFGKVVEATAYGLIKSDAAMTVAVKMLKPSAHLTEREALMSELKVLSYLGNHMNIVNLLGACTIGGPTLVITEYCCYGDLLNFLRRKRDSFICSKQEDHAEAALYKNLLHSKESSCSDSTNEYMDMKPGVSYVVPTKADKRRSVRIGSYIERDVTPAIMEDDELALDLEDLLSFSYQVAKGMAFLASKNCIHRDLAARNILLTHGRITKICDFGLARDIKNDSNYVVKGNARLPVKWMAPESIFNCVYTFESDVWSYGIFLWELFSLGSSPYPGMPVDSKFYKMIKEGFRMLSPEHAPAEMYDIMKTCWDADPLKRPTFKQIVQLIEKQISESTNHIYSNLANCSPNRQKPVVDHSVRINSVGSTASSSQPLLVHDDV
T1 sequence (P07333 20-972): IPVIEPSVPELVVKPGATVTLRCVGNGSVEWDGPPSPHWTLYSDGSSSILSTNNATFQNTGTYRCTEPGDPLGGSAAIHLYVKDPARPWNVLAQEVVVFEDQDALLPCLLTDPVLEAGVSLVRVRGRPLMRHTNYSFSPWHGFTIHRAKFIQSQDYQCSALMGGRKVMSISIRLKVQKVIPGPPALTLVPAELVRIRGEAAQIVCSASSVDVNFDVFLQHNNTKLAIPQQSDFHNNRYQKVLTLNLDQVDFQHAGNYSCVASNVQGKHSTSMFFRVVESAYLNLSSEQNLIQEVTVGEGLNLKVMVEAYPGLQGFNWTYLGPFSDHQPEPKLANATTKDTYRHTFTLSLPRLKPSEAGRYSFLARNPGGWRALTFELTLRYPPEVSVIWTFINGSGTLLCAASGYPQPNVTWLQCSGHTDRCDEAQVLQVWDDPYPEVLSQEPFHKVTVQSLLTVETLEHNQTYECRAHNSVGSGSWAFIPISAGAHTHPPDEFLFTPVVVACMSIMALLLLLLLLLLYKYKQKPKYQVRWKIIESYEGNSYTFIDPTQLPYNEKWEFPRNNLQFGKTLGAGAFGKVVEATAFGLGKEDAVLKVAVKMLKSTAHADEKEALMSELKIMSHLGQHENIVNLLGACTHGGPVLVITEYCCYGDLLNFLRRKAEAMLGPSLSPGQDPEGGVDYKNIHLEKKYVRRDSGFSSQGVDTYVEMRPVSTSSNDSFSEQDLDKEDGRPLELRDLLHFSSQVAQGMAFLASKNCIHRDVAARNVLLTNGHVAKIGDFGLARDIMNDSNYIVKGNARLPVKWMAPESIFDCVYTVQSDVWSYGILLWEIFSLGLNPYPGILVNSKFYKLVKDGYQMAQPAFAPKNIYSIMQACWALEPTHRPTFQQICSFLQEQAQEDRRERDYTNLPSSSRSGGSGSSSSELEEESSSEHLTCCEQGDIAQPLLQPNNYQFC

Compound | Selectivity profile (kinases targeted) in primary screening (panel of 48 kinases) | IC50 (HEK293 cells) [µM] | Selectivity Index (HEK293 cells; IC50 toward non cancerous HEK293 cells divided by the average IC50 for the malignant cells (A549, BxPC3)) | Selectivity index, folds higher than that calculated with SU (HEK293 cells; SI of compound versus SI of SU) | KdRTK/KdKIT, CSF1R (CSF1R) | Kd (CSF1R; read-out: Kd (nM) CSF1R) [nM] | KdRTK/KdKIT, KIT (KIT) | Kd (KIT) [nM] | Potency improvement Kd19/Kd27, CSF1R (CSF1R; 27 versus 19) | Kd (CSF1R; bound stated, read-out: Kd against CSF1R) [nM] | Potency improvement Kd19/Kd27, KIT (KIT; 27 versus 19) | MTD [1] [mg/kg]
O=C(Nc1ccccc1)Nc1ccc(Nc2cc(-c3ccccc3)ncn2)cc1 [Compound 19] | class III RTK | 7.33 ± 1.75 | 3.84 | approximately 1.5 | 132 | 2900 | 1 | 22 |  |  |  | 
O=C(CN1CCOCC1)Nc1cccc(-c2cc(Nc3ccc(NC(=O)Nc4ccccc4)cc3)ncn2)c1 [Compound 27] |  | 10 |  |  | 110 | 1100 | 1 | 10 | 2.6 | > 1000 | 2.2 | 7.5
